Laboratory results reported in patent US20250346579A1, “PYRIDAZINONE COMPOUND AND PREPARATION METHOD THEREFOR, PHARMACEUTICAL COMPOSITION THEREOF, AND APPLICATION THEREOF” (CHINA PHARMACEUTICAL UNIVERSITY, priority 2021, published 2025).
Like-named read-outs stand apart in the source and are kept apart here.

Target: T1, PARP7 (Homo sapiens, UniProt Q7Z3E1)
T1 construct: purchased BPS Bioscience
T1 sequence (Q7Z3E1 1-657): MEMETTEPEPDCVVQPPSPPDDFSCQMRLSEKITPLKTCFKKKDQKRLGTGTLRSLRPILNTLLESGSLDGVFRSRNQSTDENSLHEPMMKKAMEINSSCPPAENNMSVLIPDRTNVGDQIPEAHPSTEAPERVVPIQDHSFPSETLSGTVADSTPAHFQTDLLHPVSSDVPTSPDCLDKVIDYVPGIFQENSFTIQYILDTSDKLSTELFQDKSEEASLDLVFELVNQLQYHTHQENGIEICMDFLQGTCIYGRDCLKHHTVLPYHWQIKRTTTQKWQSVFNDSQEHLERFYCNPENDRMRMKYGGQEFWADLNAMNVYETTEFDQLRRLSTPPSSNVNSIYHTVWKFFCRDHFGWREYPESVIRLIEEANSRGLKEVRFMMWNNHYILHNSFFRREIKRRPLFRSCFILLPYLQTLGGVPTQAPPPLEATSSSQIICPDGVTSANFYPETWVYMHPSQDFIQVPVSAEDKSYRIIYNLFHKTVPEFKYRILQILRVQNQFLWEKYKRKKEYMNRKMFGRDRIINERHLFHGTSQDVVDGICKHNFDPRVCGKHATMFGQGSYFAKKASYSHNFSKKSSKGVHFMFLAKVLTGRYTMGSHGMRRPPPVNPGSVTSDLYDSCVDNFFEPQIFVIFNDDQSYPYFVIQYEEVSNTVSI
Experiment: Inhibitory activity of compounds on PARP7 enzyme (PARP7 Chemiluminescent Assay Kit)
Format: biochemical
Method: Experimental materials: PARP7 Chemiluminescent Assay Kit, BPS Bioscience; DMSO, China National Pharmaceutical Group, Nivo, PerkinElmer.
(1) Preparation of Solutions and Buffers:
Preparation of 10×PBS: 720 mg of KH2PO4, 45 g of NaCl and 5.311 g of Na2HPO4·12H2O were weighed respectively and dissolved in 500 mL of deionized water, a system pH value was adjusted to 7.4, sterilization was performed at 121° C. for 30 min, and the system after cooling was placed at 4° C. for later use.
Preparation of 1×PBS: 10×PBS was diluted 10 times with deionized water, that is, 9 parts of deionized water was added to 1 part of 10×PBS for dilution.
Preparation of wash buffer: 1×PBS contained 0.05% Tween-20.
Preparation of 1×PARP buffer (prepared freshly before use): 10×PARP buffer was diluted 10 times with deionized water and placed on ice for later use.
(2) Preparation of Compound Working Solution Concentration:
According to test requirements, a compound to be tested is diluted with 100% DMSO to a desired concentration, and then diluted 10 times with 1×PARP buffer to prepare a 10× compound working solution.
a. 5× histone mixture was thawed on ice one day prior to the experiment;
b. preparation of 1× histone mixture: 1× histone mixture was prepared through the 5× histone mixture by using 1×PBS; and 25 μL of 1× histone mixture was taken from each well and transferred into a test well plate and incubated overnight at 4° C.;
c. 100 μL of Blocking buffer was taken from each well and added to the test well plate and incubated for 90 min at 25° C.;
d. after the incubation was completed, the liquid in the test well plate was spin-dried, and the test well plate was washed repeatedly for 3 times;
e. 2.5 μL of the compound working solution was taken from each well and added to the test well plate according to an experimental layout diagram; and 1×PARP buffer with a corresponding volume of 10% DMSO was added to positive control wells (Positive Control), and 1×PARP buffer of a corresponding volume was added to blank control wells (Blank);
f. after the enzyme was completely dissolved, an enzyme stock solution was diluted with 1×PARP buffer to 6 ng/μL;
g. 10 μL of enzyme solution was taken from each well and added to the test well plate, the blank control wells were added with the corresponding volume of 1×PARP buffer, and in which case, the enzyme amount was 60 ng per well. Note: this step needs to be performed on ice;
h. 12.5 μL of master mixture was added to each well of the test well plate (12.5 μL master mixture included 1.25 μL of 10×PARP buffer, 1.25 μL of Opti-PARP 10× Assay mixture and 10 μL of water); the test well plate was sealed and incubated at 25° C. for 60 min;
i. after the incubation was completed, the liquid in the test well plate was spin-dried, and the test well plate was washed repeatedly for 3 times;
j. Streptavidin-HRP in a kit was diluted 50 times with a Blocking buffer, 25 μL was taken from each well and added to the test well plate, and incubated at 25° C. for 30 min;
k. after the incubation was completed, the liquid in the test well plate was spin-dried, and the test well plate was washed repeatedly for 3 times;
l. ELISA ECL Substrate A and ELISA ECL Substrate B in the kit was mixed to obtain a mixed solution according to a ratio of 1:1, 50 μL of the mixed solution was added to each well of the test well plate, Nivo was used to perform Luminescence detection immediately, and a luminous value (RLU) was read; and
m. calculation of an enzyme rate: Enzyme Activity=(RLU(Sample)−RLU(Blank))/(RLU(Pos.Ctrl)−RLU(Blank))×100%; and enzyme inhibition rate=1−% Enzyme Activity, and specific results were shown in Table 1 below.

[1] = chemiluminescence, symbols defined as IC50 classes, read-out: 100 nM Inhibition Rate
[2] = summary of Table 1, read-out: enzyme inhibition IC50 values

| IC50 [1] [nM] | IC50 [2] [nM] | SMILES |
| --- | --- | --- |
| < 100 | < 100 | CC(CC1CN(C(=O)C2CCN(c3ncc(C(F)(F)F)cn3)CC2)C1)Nc1cn[nH]c(=O)c1C(F)(F)F [I-D-1, 4-(trifluoromethyl)-5-((1-(1-(1-(5-(trifluoromethyl)pyrimidin-2-yl)piperidine-4-carbonyl)azetidin-3-yl)propan-2-yl)amino)pyridazin-3(2H)-one] |
| < 100 | – | Cc1cnc(N2CCN(C(=O)C3CN(C[C@H](C)Nc4cn[nH]c(=O)c4C(F)(F)F)C3)CC2)nc1 [I-A-6, (S)-5-((1-(3-(4-(5-methylpyrimidin-2-yl)piperazine-1-carbonyl)azetidin-1-yl)propan-2-yl)amino)-4-(trifluoromethyl)pyridazin-3(2H)-one] |
| < 100 | < 100 | O=C(NCCCCNc1cn[nH]c(=O)c1C(F)(F)F)N1CCN(c2ncc(C(F)(F)F)cn2)CC1 [I-E-1, N-(4-((6-oxo-5-(trifluoromethyl)-1,6-dihydropyridazin-4-yl)amino)butyl)-4-(5-(trifluoromethyl)pyrimidin-2-yl)piperazine-1-carboxamide] |
| < 100 | < 100 | O=C(C1CN(CCNc2cn[nH]c(=O)c2C(F)(F)F)C1)N1CCN(c2ncc(C(F)(F)F)cn2)CC1 [I-A-20, 4-(trifluoromethyl)-5-((2-(3-(4-(5-(trifluoromethyl)pyrimidin-2-yl)piperazine-1-carbonyl)azetidin-1-yl)ethyl)amino)pyridazin-3(2H)-one] |
| < 100 | < 100 | C[C@@H](CN1CC(C(=O)N2CCN(c3ccc4c(c3)OC(F)(F)O4)CC2)C1)Nc1cn[nH]c(=O)c1C(F)(F)F [I-B-1, (S)-5-((1-(3-(4-(2,2-difluorobenzo[d][1,3]dioxol-5-yl)piperazine-1-carbonyl)azetidin-1-yl)propan-2-yl)amino)-4-(trifluoromethyl)pyridazin-3(2H)-one] |
| 100 to 500 | – | C[C@@H](CN1CC(C(=O)N2CCN(c3ncc(C(F)(F)F)cn3)CC2)C1)Nc1cn[nH]c(=O)c1Br [I-A-23, (S)-4-bromo-5-((1-(3-(4-(5-(trifluoromethyl)pyrimidin-2-yl)piperazine-1-carbonyl)azetidin-1-yl)propan-2-yl)amino)pyridazin-3(2H)-one] |
| < 100 | – | C[C@@H](CN1CC(C(=O)N2CCN(c3ccc(C(F)(F)F)cn3)CC2)C1)Nc1cn[nH]c(=O)c1C(F)(F)F [I-A-10, (S)-4-(trifluoromethyl)-5-((1-(3-(4-(5-(trifluoromethyl)pyridin-2-yl)piperazine-1-carbonyl)azetidin-1-yl)propan-2-yl)amino)pyridazin-3(2H)-one] |
| < 100 | < 100 | C[C@@H](CN1CC(C(=O)N2CCN(c3nccc(C(F)(F)F)n3)CC2)C1)Nc1cn[nH]c(=O)c1C(F)(F)F [I-A-13, (S)-4-(trifluoromethyl)-5-((1-(3-(4-(4-(trifluoromethyl)pyrimidin-2-yl)piperazine-1-carbonyl)azetidin-1-yl)propan-2-yl)amino)pyridazin-3(2H)-one] |
| 100 to 500 | – | C[C@@H](CN1CC[C@H](C(=O)N2CCN(c3ncc(C(F)(F)F)cn3)CC2)C1)Nc1cn[nH]c(=O)c1C(F)(F)F [I-A-18, 4-(trifluoromethyl)-5-(((2S)-1-(3-(4-(5-(trifluoromethyl)pyrimidin-2-yl)piperazine-1-carbonyl)pyrrolidin-1-yl)propan-2-yl)amino)pyridazin-3(2H)-one] |
| 100 to 500 | – | C[C@@H](CN1CC(C(=O)N2CCN(c3ncc(-c4ccc(C(F)(F)F)cc4)cn3)CC2)C1)Nc1cn[nH]c(=O)c1C(F)(F)F [I-A-2, (S)-4-(trifluoromethyl)-5-((1-(3-(4-(5-(4-(trifluoromethyl)phenyl)pyrimidin-2-yl)piperazine-1-carbonyl)azetidin-1-yl)propan-2-yl)amino)pyridazin-3(2H)-one] |
